ChEMBL document CHEMBL1909046, “DrugMatrix in vitro pharmacology data”

What follows are molecules tested against T1, Calcitonin receptor (Homo sapiens, UniProt P30988) (assay: not given). Conditions: t47d.
T1 sequence (P30988 whole entry): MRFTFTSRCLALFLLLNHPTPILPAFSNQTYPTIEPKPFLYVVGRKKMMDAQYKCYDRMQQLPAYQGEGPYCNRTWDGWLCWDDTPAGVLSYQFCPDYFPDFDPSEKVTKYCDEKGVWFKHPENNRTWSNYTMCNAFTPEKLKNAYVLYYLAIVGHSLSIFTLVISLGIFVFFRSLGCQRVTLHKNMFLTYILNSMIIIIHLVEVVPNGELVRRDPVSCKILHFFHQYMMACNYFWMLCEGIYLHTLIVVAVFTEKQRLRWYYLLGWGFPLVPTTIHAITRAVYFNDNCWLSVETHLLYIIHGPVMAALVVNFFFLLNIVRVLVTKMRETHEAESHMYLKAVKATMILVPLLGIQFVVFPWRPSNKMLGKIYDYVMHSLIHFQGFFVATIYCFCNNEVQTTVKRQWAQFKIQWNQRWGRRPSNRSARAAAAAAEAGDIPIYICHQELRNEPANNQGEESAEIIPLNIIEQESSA
Assay type: cell membranes, Membrane
Throughout, for Ki: in other assays of this panel Not Active means under 50% inhibition at 10 µM.

SMILES | IC50
Nc1c(CC(=O)O)cccc1C(=O)c1ccc(Br)cc1 [BROMFENAC] | Not Active
CCCCN1CCCCC1C(=O)Nc1c(C)cccc1C.Cl (stereo not drawn) [BUPIVACAINE HYDROCHLORIDE] | Not Active
O=C1CC2(CCCC2)CC(=O)N1CCCCN1CCN(c2ncccn2)CC1 [BUSPIRONE] | Not Active
C[C@@]12C(=O)OC(=O)[C@]1(C)[C@H]1CC[C@@H]2O1 [CANTHARIDIN] | Not Active
ClC(Cl)Cl [CHLOROFORM] | Not Active
C=C1CC[C@H](O)C/C1=C/C=C1\CCC[C@]2(C)[C@@H]([C@H](C)CCCC(C)C)CC[C@@H]12 [CHOLECALCIFEROL] | Not Active
C[N+](C)(C)CCO.[Cl-] [CHOLINE CHLORIDE] | Not Active
CC(=O)OCC(=O)[C@@]1(O)CC[C@H]2[C@@H]3CCC4=CC(=O)CC[C@]4(C)[C@H]3C(=O)C[C@@]21C [CORTISONE ACETATE] | Not Active
O=c1ccc2ccccc2o1 [COUMARIN] | Not Active

Each molecule was assayed against Cytochrome P450 2C19 (Homo sapiens, UniProt P33261) (assay: not given). Conditions: bti-tn-5b1-4.
Chain of Cytochrome P450 2C19 (P33261 whole entry): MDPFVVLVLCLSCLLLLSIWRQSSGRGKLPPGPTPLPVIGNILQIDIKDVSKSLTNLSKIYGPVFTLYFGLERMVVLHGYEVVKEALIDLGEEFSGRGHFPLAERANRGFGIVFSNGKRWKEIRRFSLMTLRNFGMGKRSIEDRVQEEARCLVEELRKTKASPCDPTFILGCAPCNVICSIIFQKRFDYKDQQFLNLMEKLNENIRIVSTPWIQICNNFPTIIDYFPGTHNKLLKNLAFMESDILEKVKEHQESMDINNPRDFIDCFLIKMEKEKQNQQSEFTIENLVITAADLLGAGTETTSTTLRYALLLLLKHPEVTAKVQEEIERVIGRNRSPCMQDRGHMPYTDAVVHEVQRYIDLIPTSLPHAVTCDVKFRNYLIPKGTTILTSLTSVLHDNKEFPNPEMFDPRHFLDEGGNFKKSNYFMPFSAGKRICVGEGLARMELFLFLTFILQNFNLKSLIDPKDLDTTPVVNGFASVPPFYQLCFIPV

SMILES | IC50 | Ki
Nc1c(CC(=O)O)cccc1C(=O)c1ccc(Br)cc1 [BROMFENAC] | Not Active | Not Active
CCCCN1CCCCC1C(=O)Nc1c(C)cccc1C.Cl (stereo not drawn) [BUPIVACAINE HYDROCHLORIDE] | Not Active | Not Active
O=C1CC2(CCCC2)CC(=O)N1CCCCN1CCN(c2ncccn2)CC1 [BUSPIRONE] | Not Active | Not Active
C[C@@]12C(=O)OC(=O)[C@]1(C)[C@H]1CC[C@@H]2O1 [CANTHARIDIN] | Not Active | Not Active
ClC(Cl)Cl [CHLOROFORM] | Not Active | Not Active
C=C1CC[C@H](O)C/C1=C/C=C1\CCC[C@]2(C)[C@@H]([C@H](C)CCCC(C)C)CC[C@@H]12 [CHOLECALCIFEROL] | Not Active | Not Active
C[N+](C)(C)CCO.[Cl-] [CHOLINE CHLORIDE] | Not Active | Not Active
CC(=O)OCC(=O)[C@@]1(O)CC[C@H]2[C@@H]3CCC4=CC(=O)CC[C@]4(C)[C@H]3C(=O)C[C@@]21C [CORTISONE ACETATE] | Not Active | Not Active
O=c1ccc2ccccc2o1 [COUMARIN] | Not Active | Not Active

What follows are molecules tested against T2, 5-hydroxytryptamine receptor 2C (Homo sapiens, UniProt P28335) (assay: DRUGMATRIX: Serotonin (5-Hydroxytryptamine) 5-HT2C radioligand binding (ligand: [3H] Mesulergine)). Conditions: cho-k1; Not Active = under 50% inhibition at 10 µM.
T2 sequence (P28335 whole entry): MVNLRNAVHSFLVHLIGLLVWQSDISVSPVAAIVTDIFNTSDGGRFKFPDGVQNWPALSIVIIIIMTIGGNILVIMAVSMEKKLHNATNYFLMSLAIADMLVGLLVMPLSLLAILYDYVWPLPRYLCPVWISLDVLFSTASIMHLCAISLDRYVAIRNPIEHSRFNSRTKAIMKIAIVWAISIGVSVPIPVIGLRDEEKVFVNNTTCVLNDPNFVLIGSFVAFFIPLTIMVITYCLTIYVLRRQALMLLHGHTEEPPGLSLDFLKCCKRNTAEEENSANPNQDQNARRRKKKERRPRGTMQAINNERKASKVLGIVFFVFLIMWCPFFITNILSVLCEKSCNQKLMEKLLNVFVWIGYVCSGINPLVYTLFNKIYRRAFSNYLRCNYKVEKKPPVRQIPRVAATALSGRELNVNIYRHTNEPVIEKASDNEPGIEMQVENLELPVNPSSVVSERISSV
Assay type: cell membranes, CHO-K1, Membrane

SMILES | IC50
Nc1c(CC(=O)O)cccc1C(=O)c1ccc(Br)cc1 [BROMFENAC] | Not Active
CCCCN1CCCCC1C(=O)Nc1c(C)cccc1C.Cl (stereo not drawn) [BUPIVACAINE HYDROCHLORIDE] | Not Active
O=C1CC2(CCCC2)CC(=O)N1CCCCN1CCN(c2ncccn2)CC1 [BUSPIRONE] | Not Active
C[C@@]12C(=O)OC(=O)[C@]1(C)[C@H]1CC[C@@H]2O1 [CANTHARIDIN] | Not Active
ClC(Cl)Cl [CHLOROFORM] | Not Active
C=C1CC[C@H](O)C/C1=C/C=C1\CCC[C@]2(C)[C@@H]([C@H](C)CCCC(C)C)CC[C@@H]12 [CHOLECALCIFEROL] | Not Active
C[N+](C)(C)CCO.[Cl-] [CHOLINE CHLORIDE] | Not Active
CC(=O)OCC(=O)[C@@]1(O)CC[C@H]2[C@@H]3CCC4=CC(=O)CC[C@]4(C)[C@H]3C(=O)C[C@@]21C [CORTISONE ACETATE] | Not Active
O=c1ccc2ccccc2o1 [COUMARIN] | Not Active

What follows are molecules tested against T3, Polyunsaturated fatty acid lipoxygenase ALOX15 (Oryctolagus cuniculus, UniProt P12530) (assay: biochemical). Conditions: reticulocytes.
T3 sequence (P12530 whole entry): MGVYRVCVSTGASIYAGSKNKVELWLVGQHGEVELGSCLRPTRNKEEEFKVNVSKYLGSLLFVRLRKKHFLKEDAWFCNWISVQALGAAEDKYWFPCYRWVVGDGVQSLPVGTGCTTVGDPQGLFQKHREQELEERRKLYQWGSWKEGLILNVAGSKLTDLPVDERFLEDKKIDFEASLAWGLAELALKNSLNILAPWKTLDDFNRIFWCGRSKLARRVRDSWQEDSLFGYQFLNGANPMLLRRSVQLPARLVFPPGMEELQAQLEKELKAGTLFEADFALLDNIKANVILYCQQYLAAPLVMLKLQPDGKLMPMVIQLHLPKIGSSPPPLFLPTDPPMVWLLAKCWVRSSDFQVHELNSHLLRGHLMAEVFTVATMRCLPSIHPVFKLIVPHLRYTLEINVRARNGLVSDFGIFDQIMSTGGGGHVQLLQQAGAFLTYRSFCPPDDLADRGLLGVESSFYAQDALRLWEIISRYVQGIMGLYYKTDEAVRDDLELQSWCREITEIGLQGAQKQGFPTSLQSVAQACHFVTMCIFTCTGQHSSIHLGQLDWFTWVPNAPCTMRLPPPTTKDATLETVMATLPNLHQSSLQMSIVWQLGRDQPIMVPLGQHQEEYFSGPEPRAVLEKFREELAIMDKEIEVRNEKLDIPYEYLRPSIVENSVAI
Assay type: tissue-based, Reticulocytes

SMILES | IC50
Nc1c(CC(=O)O)cccc1C(=O)c1ccc(Br)cc1 [BROMFENAC] | Not Active
CCCCN1CCCCC1C(=O)Nc1c(C)cccc1C.Cl (stereo not drawn) [BUPIVACAINE HYDROCHLORIDE] | Not Active
O=C1CC2(CCCC2)CC(=O)N1CCCCN1CCN(c2ncccn2)CC1 [BUSPIRONE] | Not Active
C[C@@]12C(=O)OC(=O)[C@]1(C)[C@H]1CC[C@@H]2O1 [CANTHARIDIN] | Not Active
ClC(Cl)Cl [CHLOROFORM] | Not Active
C=C1CC[C@H](O)C/C1=C/C=C1\CCC[C@]2(C)[C@@H]([C@H](C)CCCC(C)C)CC[C@@H]12 [CHOLECALCIFEROL] | Not Active
C[N+](C)(C)CCO.[Cl-] [CHOLINE CHLORIDE] | Not Active
CC(=O)OCC(=O)[C@@]1(O)CC[C@H]2[C@@H]3CCC4=CC(=O)CC[C@]4(C)[C@H]3C(=O)C[C@@]21C [CORTISONE ACETATE] | Not Active
O=c1ccc2ccccc2o1 [COUMARIN] | Not Active

Each molecule was assayed against Mitogen-activated protein kinase 1 (Homo sapiens, UniProt P28482) (assay: DRUGMATRIX: Protein Serine/Threonine Kinase, ERK2 enzyme inhibition (substrate: Myelin Basic Protein)). Conditions: Not Active = under 50% inhibition at 10 µM.
Parameters: species or system Escherichia coli

Chain of Mitogen-activated protein kinase 1 (P28482 whole entry): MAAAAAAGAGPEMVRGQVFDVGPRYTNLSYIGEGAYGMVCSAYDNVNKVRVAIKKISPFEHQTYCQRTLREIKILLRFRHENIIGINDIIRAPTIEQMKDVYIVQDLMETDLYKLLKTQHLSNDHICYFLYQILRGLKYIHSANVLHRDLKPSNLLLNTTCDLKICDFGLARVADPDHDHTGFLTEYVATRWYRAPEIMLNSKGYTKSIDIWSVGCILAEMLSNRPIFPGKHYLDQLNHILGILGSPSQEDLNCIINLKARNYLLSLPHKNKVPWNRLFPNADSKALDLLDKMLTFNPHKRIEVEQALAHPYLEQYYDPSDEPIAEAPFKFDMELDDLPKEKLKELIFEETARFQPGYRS

SMILES | IC50
Nc1c(CC(=O)O)cccc1C(=O)c1ccc(Br)cc1 [BROMFENAC] | Not Active
CCCCN1CCCCC1C(=O)Nc1c(C)cccc1C.Cl (stereo not drawn) [BUPIVACAINE HYDROCHLORIDE] | Not Active
O=C1CC2(CCCC2)CC(=O)N1CCCCN1CCN(c2ncccn2)CC1 [BUSPIRONE] | Not Active
C[C@@]12C(=O)OC(=O)[C@]1(C)[C@H]1CC[C@@H]2O1 [CANTHARIDIN] | Not Active
ClC(Cl)Cl [CHLOROFORM] | Not Active
C=C1CC[C@H](O)C/C1=C/C=C1\CCC[C@]2(C)[C@@H]([C@H](C)CCCC(C)C)CC[C@@H]12 [CHOLECALCIFEROL] | Not Active
C[N+](C)(C)CCO.[Cl-] [CHOLINE CHLORIDE] | Not Active
CC(=O)OCC(=O)[C@@]1(O)CC[C@H]2[C@@H]3CCC4=CC(=O)CC[C@]4(C)[C@H]3C(=O)C[C@@]21C [CORTISONE ACETATE] | Not Active
O=c1ccc2ccccc2o1 [COUMARIN] | Not Active

Each molecule was assayed against T4, Alpha-2A adrenergic receptor (Homo sapiens, UniProt P08913) (assay: not given). Conditions: sf9.
T4 sequence (P08913 whole entry): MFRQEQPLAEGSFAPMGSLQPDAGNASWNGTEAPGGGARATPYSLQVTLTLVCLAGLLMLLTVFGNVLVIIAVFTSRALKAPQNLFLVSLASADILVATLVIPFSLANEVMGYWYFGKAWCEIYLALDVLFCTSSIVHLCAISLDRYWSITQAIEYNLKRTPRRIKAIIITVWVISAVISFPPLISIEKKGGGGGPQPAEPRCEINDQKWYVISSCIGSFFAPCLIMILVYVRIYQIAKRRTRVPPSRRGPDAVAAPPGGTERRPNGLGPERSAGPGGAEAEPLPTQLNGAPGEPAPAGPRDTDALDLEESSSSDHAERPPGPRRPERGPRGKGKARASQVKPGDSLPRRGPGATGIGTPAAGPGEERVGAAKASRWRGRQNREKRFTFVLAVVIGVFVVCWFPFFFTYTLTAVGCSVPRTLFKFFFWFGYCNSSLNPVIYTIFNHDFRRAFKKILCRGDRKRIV
Assay type: cell membranes, Sf9, Membrane

SMILES | IC50
Nc1c(CC(=O)O)cccc1C(=O)c1ccc(Br)cc1 [BROMFENAC] | Not Active
CCCCN1CCCCC1C(=O)Nc1c(C)cccc1C.Cl (stereo not drawn) [BUPIVACAINE HYDROCHLORIDE] | Not Active
O=C1CC2(CCCC2)CC(=O)N1CCCCN1CCN(c2ncccn2)CC1 [BUSPIRONE] | Not Active
C[C@@]12C(=O)OC(=O)[C@]1(C)[C@H]1CC[C@@H]2O1 [CANTHARIDIN] | Not Active
ClC(Cl)Cl [CHLOROFORM] | Not Active
C=C1CC[C@H](O)C/C1=C/C=C1\CCC[C@]2(C)[C@@H]([C@H](C)CCCC(C)C)CC[C@@H]12 [CHOLECALCIFEROL] | Not Active
C[N+](C)(C)CCO.[Cl-] [CHOLINE CHLORIDE] | Not Active
CC(=O)OCC(=O)[C@@]1(O)CC[C@H]2[C@@H]3CCC4=CC(=O)CC[C@]4(C)[C@H]3C(=O)C[C@@]21C [CORTISONE ACETATE] | Not Active
O=c1ccc2ccccc2o1 [COUMARIN] | Not Active
